Assay results taken from patent US20120148604A1, “TRP INHIBITORS AND USES THEREOF” (TRANSPOSAGEN BIOPHARMACEUTICALS, INC., priority 2009, published 2012).
Entries after “also recorded” stand apart in the source; their conditions may differ. Where two headings read alike, the source gives them in different places. Values belong to the molecule of their own block, whether it stands above or below them.

Legend:
[1] = STZ induced diabetes, von Frey filament mechanical pain threshold; assay type: in vivo, rat; settings: STZ treated diabetic control rats vs non-treated control rats
Method: Von Frey Filament Test (Chang model): The effect of compounds on mechanical allodynia can be determined by the von Frey filament test in rats with a tight ligation of the L-5 spinal nerve: a model of painful peripheral neuropathy. The surgical procedure is performed as described by Kim et al., Pain 50: 355-363 (1992). A calibrated series of von Frey filaments are used to assess mechanical allodynia (Chaplan et al., J. Neurosci. Methods 53: 55-63 (1994)). Filaments of increasing stiffness are applied perpendicular to the midplantar surface in the sciatic nerve distribution of the left hindpaw. The filaments are slowly depressed until bending occurred and are then held for 4-6 seconds. Flinching and licking of the paw and paw withdrawal on the ligated side are considered positive responses.
Since many patients with diabetes mellitus also suffer from hyperalgesia-derived neuropathic pain, the Trpc4(−/−) rats were studied for this indication. Groups of control and Trpc4 knockout rats were treated with streptozotocin (STZ) in order to induce diabetes. Rats were defined to be in a diabetic state if hyperglycemia and glucosuria occurred. The mechanical induced von Frey filament method was again used to establish altered pain response. When STZ non-treated control rats were compared to STZ diabetic control rats the pain response to mechanical induction was very drastic. […]

TRPC4 [2] = settings: HEK cells, cited from earlier work
[3] = Paclitaxel induced cold allodynia, acetone cold response; assay type: in vivo, rat
Method: Cancer patients who are treated with chemotherapy drugs such as paclitaxel often display sensory abnormalities and symptoms of neuropathic pain such as sudden unexplainable pain attacks. In order to study the effects of cation channels on paclitaxel induced pain, Trpc4−/− rats were treated with the anti-cancer drug. Since one of the major symptoms of patients who are treated with paclitaxel is cold allodynia, control and Trpc4−/− rats were exposed to paclitaxel and tested for acetone cold response. Previously control non-paclitaxel treated and paclitaxel treated WT rats were studied for differences in cold allodynia. Based on established cold score calculations the non-treated rats scored an average of 8 while the paclitaxel treated WT rats scored an average of 15. […] When control and Trpc4−/− treated rats were compared the difference in pain sensitivity was dramatic. […] The reversion to nearly wild type cold allodynia score was remarkable in Trpc4 knockout rats.

TRPC4 [4] = settings: dominant negative N-term fragment; cited from earlier work

Molecule: CN(N=O)C(=O)N[C@H]1C(O)O[C@H](CO)[C@@H](O)[C@@H]1O (mixture of isomers) [STZ, streptozotocin]
decrease of threshold for pain [1]: 40%

Molecule: C=O [Formalin]
duration of nociceptive activity (rubbing face and flipping the head) (Formalin 1.5% 50 μl sc upper lip): 25 to 30 min
start of the activity (wild type rats, Formalin 1.5% 50 μl sc): 10 to 12 s

Molecule: Cl.NCCCCCCNS(=O)(=O)c1cccc2c(Cl)cccc12 [W-7, N-(6-Aminohexyl)-5-chloro-1-naphthalenesulfonamide hydrochloride]
effect on TRPC4 current (TRPC4 [2]; hydrochloride): significantly decreases TRPC4 current; also recorded: inhibited

Molecule: Clc1ccc(C(c2ccc(Cl)cc2)n2cc[n+](CC(OCc3ccc(Cl)cc3Cl)c3ccc(Cl)cc3Cl)c2)cc1 (stereo not drawn) [calmidazolium]
effect on TRPC4 current (TRPC4 [2]): not inhibited
effect on TRPC4 current (TRPC4 [2]; listed as CMZ): unable to inhibit TRPC4 current

cold score ([3]; paclitaxel treated Trpc4 knockout rats): 9
cold score (average) ([3]; paclitaxel treated WT rats, non-treated rats scored 8): 15
Molecule: CC(=O)O[C@H]1C(=O)[C@@]2(C)[C@H]([C@H](OC(=O)c3ccccc3)[C@]3(O)C[C@H](OC(=O)[C@H](O)[C@@H](NC(=O)c4ccccc4)c4ccccc4)C(C)=C1C3(C)C)[C@]1(OC(C)=O)CO[C@@H]1C[C@@H]2O [paclitaxel]

B1: first ankyrin domain: dominant negative N-term fragment of TRPC4, residues 61-121 (rat and mouse sequence in b219) (protein, UniProt Q9QUQ5 61-121, looked up, fragment)
chain: ININCIDPLGRTALLIAIENENLELIELLLSFNVYVGDALLHAIRKEVVGAVELLLNHKKP
suppression of TRPC4 currents (TRPC4 [4]): successfully suppress TRPC4 currents
